Results published in patent publication US4780420A (Yale University, priority 1985, dated 1988).
Read-outs that look alike come from different tables or passages of the source.

Columns and labels:
[1] = molecular target: T1, progesterone receptor (Oryctolagus cuniculus, UniProt P06186); assay: Competition of a series of steroids with [^3 H]R5020 and [^125 I]EVNT (specificity); type: binding, rabbit; details: for competing for sites with either ligand (in words): [^3 H]R5020 and [^125 I]EVNT; for activity at 0.003 µM: competitor 3 nM; for activity at 0.1 µM: competitor 100 nM
T1 construct: On the fifth day the uterus was excised, weighed and homogenized; from tissue
T1 sequence (P06186 1-930): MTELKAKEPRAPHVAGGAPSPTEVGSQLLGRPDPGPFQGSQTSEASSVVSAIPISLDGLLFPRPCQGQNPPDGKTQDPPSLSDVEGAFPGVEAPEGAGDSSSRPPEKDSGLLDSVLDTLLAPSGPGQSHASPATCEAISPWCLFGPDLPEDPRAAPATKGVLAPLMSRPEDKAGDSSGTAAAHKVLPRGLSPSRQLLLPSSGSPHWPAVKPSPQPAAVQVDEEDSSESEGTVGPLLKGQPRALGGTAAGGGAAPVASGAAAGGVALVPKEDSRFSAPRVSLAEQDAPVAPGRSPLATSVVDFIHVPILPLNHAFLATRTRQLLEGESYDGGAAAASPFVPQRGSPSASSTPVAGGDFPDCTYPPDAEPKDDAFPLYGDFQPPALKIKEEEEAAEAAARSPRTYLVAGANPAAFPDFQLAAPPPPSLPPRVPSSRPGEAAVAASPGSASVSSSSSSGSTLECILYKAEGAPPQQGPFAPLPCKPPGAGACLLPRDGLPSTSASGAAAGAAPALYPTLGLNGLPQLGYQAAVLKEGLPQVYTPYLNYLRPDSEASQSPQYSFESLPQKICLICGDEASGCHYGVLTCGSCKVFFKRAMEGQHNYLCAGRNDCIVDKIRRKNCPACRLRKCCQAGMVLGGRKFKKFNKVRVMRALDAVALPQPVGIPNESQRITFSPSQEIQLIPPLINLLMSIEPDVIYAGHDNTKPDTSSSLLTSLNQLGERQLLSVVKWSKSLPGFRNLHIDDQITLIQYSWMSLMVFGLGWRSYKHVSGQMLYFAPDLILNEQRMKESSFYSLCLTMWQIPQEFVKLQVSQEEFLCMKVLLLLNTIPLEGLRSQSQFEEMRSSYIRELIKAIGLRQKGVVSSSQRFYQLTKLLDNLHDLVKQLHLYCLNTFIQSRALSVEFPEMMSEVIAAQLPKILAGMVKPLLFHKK
Experimental: To be sure that [^125 I]EVNT and [^3 H]R5020 bound with similar specificities, experiments were performed in which a series of steroids competed with the two differently labelled ligands.
Bo is dpm specifically bound when
B is dpm bound in the presence of […]

[2] = tested on: estrogen receptor; details: Hansen et al., Jogoda et al.; cited from earlier work
[3] = in vivo; cited from earlier work
[4] = molecular target: T1, progesterone receptor; assay: Saturation and Scatchard analysis of the progesterone receptor with [^125 I]EVNT and [^3 H]R5020; type: binding, rabbit; details: for slope and intercept of the Scatchard plots, i.e. -Ka and the binding capacity (in words): FIG. 3, R5020 vs EVNT
[5] = molecular target: T1, progesterone receptor; assay: Progesterone receptor assay: competition with [^3 H]R5020 binding; parameters: species or system rabbit
Experimental: On the fifth day the uterus was excised, weighed and homogenized at 0° C. in 1.5 volumes of iced buffer containing: 1 mM dithiothreitol, 0.15 mM Na2 EDTA, 30% glycerol, 20 mM sodium molybdate, 10 mM Tris/HCl, pH 7.4 (4° C.). Homogenization was accomplished with three 10 second bursts of Polytron homogenizer. The homogenate was centrifuged at 3,000×g for 10 min. and the resulting supernatant was centrifuged at 100,000×g for 1 hour. The final supertant (cytosol) was diluted with homogenization buffer to afford 20-40% binding of a trace of [^3 H]R5020 (90 Ci/mMol), 10,000 dpm, and 50 μl of the appropriate radioinert compound. Non-specific binding was evaluated in tubes containing 2 μM R5020. After incubating at 4° C. overnight, free and bound steroids were separated by the addition of 100 μl of a stirred suspension of charcoal (5 mg/ml) in 10 mM Tris-HCl, pH 7.4 (4° C.), 0.15 mM Na2 EDTA. After mixing and standing on ice for 10 min., the tubes were centrifuged at 1500×g for 10 mins. and the "bound" radioactivity, in a 0.15 ml aliquot of the supernatant, was measured in a liquid scintillation counter.
In FIG. 1, Bo is the specifically bound [^3 H]R5020 alone and b is the specifically bound [^3 H]R5020 in the presence of the designated concentration of competitor. […] In Table 1 below, the values in parenthesis are the number of complete experiments which were conducted; the binding constants are means±SEM.

[6] = Storage stability by thin layer chromatography; type: physicochemical; details: 4° C., 10% ethanol in benzene
Experimental: The radioactive product, [^125 I]EVNT, was stored at 4° C. in the alcoholic benzene solution.

[7] = read-out: B/Bo × 10^2, radioligand [^3 H]R5020 (0.67 nM)
[8] = read-out: B/Bo × 10^2, radioligand [^125 I]EVNT (0.18 nM)
[9] = radioligand [^3 H]R5020 (0.67 nM), read-out: B/Bo × 10^2
[10] = radioligand [^125 I]EVNT (0.18 nM), read-out: B/Bo × 10^2
[11] = estrogen stimulated rabbit uterine cytosol, five experiments

C[C@]12CCC(=O)C[C@@H]1CC[C@@H]1[C@@H]2CC[C@]2(C)[C@@H](O)CC[C@@H]12 [5α-DHT, 5α-dihydrotestosterone]
competing for sites with either ligand (in words) [1]: ineffective in competing for sites with either ligand | activity at 0.003 µM [1, 7]: 101% | activity at 0.1 µM [1, 7]: 95% | activity at 0.003 µM [1, 8]: 100% | activity at 0.1 µM [1, 8]: 91%

C[C@]12CCC(=O)C=C1CC[C@@H]1[C@@H]2[C@@H](O)C[C@@]2(C)[C@H]1CC[C@]2(O)C(=O)CO [Cortisol]
competing for sites with either ligand (in words) [1]: ineffective in competing for sites with either ligand | activity at 0.003 µM [1, 9]: 98% | activity at 0.1 µM [1, 9]: 106% | activity at 0.003 µM [1, 10]: 100% | activity at 0.1 µM [1, 10]: 102%

C[C@@H]1C[C@H]2[C@@H]3CCC4=CC(=O)C=C[C@]4(C)[C@@]3(F)[C@@H](O)C[C@]2(C)[C@@]1(O)C(=O)CO [Dexamethasone]
competing for sites with either ligand (in words) [1]: ineffective in competing for sites with either ligand | activity at 0.003 µM [1, 9]: 103% | activity at 0.1 µM [1, 9]: 101% | activity at 0.003 µM [1, 10]: 96% | activity at 0.1 µM [1, 10]: 100%

C[C@]12CC[C@@H]3c4ccc(O)cc4CC[C@H]3[C@@H]1CC[C@@]2(O)/C=C/I [E-17α-[2-iodovinyl]analogs of estradiol]
binding to the estrogen receptor (in words) [2]: bind to the estrogen receptor | concentration in estrogen target tissues (in words) [3]: concentrate in estrogen target tissues

C[C@]12CC[C@H]3[C@@H](CCC4=CC(=O)CC[C@@H]43)[C@@H]1CC[C@@]2(O)/C=C/I [EVNT, E-17α-(2-iodovinyl)-4-estrene-17β-ol-3-one]
slope and intercept of the Scatchard plots, i.e. -Ka and the binding capacity (in words) [4]: almost the same | level of non-specific binding (in words) ([4]; FIGS. 2A and 2B): satisfactory and almost identical to that seen with R5020 | competing for sites with either ligand (in words) [1]: substantial competition | activity at 0.003 µM [1, 7]: 42% | activity at 0.1 µM [1, 7]: 0% | activity at 0.003 µM [1, 8]: 74% | activity at 0.1 µM [1, 8]: 0% | Ki [5]: 4.26 ± 0.94 nM | binding to the progesterone receptor (in words) [5]: bind the progesterone receptor with high affinity

C[C@]12CC[C@H]3[C@@H](CCC4=CC(=O)CC[C@@H]43)[C@@H]1C[C@@H](I)[C@@H]2O [INT, 16α-Iodo-4-estrene-17β-ol-3-one]
Ki [5]: 39.8 nM | binding to the progesterone receptor (in words) [5]: bind the progesterone receptor with high affinity

CC(=O)[C@H]1CC[C@H]2[C@@H]3CCC4=CC(=O)CC[C@]4(C)[C@H]3CC[C@]12C [Progesterone]
competing for sites with either ligand (in words) [1]: substantial competition | activity at 0.003 µM [1, 9]: 94% | activity at 0.1 µM [1, 9]: 37% | activity at 0.003 µM [1, 10]: 91% | activity at 0.1 µM [1, 10]: 22%

CCC(=O)[C@@]1(C)CC[C@H]2[C@@H]3CCC4=CC(=O)CCC4=C3CC[C@@]21C [R5020, 17α,21-dimethyl-19-nor-4,9-pregnadiene-3,20-dione]
slope and intercept of the Scatchard plots, i.e. -Ka and the binding capacity (in words) [4]: almost the same | competing for sites with either ligand (in words) [1]: substantial competition | activity at 0.003 µM [1, 9]: 34% | activity at 0.1 µM [1, 9]: 0% | activity at 0.003 µM [1, 10]: 74% | activity at 0.1 µM [1, 10]: 0% | Kd ([5]; R5020, footnote *Kd, rabbit uterine cytosol, mean±SEM (5 experiments)): 1.05 ± 0.19 nM

C[C@]12CC[C@H]3[C@@H](CCC4=CC(=O)CC[C@@]43C)[C@@H]1CC[C@@H]2O [Testosterone]
competing for sites with either ligand (in words) [1]: ineffective in competing for sites with either ligand | activity at 0.003 µM [1, 7]: 100% | activity at 0.1 µM [1, 7]: 105% | activity at 0.003 µM [1, 8]: 101% | activity at 0.1 µM [1, 8]: 98%

C[C@]12CC[C@H]3[C@@H](CCC4=CC(=O)CC[C@@H]43)[C@@H]1CC[C@@]2(O)/C=C\I [ZVNT, Z-17α-(2-iodovinyl)-4-estrene-17β-ol-3-one]
Ki [5]: 1.81 nM | binding to the progesterone receptor (in words) ([5]; listed as Z 17α-(2-iodovinyl) analog of 19-nortestosterone): bind the progesterone receptor with high affinity | binding to the progesterone receptor (in words) ([5]; listed as Z isomer): somewhat greater affinity for the progesterone receptor

CCC(=O)[C@@]1(C)CC[C@H]2[C@@H]3CCC4=CC(=O)CCC4=C3CC[C@@]21C [[^3 H]R5020, [^3 H]17α,21-dimethyl-19-nor-4,9-pregnadiene-3,20-dione]
binding capacity [4, 11]: 666 ± 198 pM | Kd ([4]; estrogen stimulated rabbit uterine cytosol, five experiments, ± SEM, read-out: Association constant Ka (converted)): 0.8 nM

C[C@]12CC[C@H]3[C@@H](CCC4=CC(=O)CC[C@@H]43)[C@@H]1CC[C@@]2(O)/C=C/[125I] [[^125 I]EVNT]
Kd [4]: 1.05 nM | binding capacity [4, 11]: 921 pM | stable for a period of at least [6]: 2-3 months
